From US11931374B2, “Adenosine receptor modulators for the treatment of circadian rhythm disorders” (OXFORD UNIVERSITY INNOVATION LIMITED, priority 2016, dated 2024)

Legend:
Per2::Luc U2OS cells = assay: Per2::Luc cell based circadian assay; conditions: Per2::Luc U2OS cells, dose response
Experimental: U2OS cells stably transfected with a Per2::Luc reporter were cultured in DMEM supplemented with 10% FBS. For siRNA- and drug-based experiments, cells were seeded at 5,000 per well into white 384 well plates and transfected with 20 nM siRNA the next day. 2 days later, the cells were synchronized with 100 nM dexamethasone and the medium was replaced with phenol-red free DMEM supplemented with B-27 and 100 µM luciferin potassium salt, requisite drugs formulated in DMSO as a 1000× stock was added, and then sealed. Per2::Luc rhythms were recorded from a BMG Labtech Fluostar Omega plate reader maintained at 36° C. and readings taken from each well every hour. Data were then analysed using either Multicycle or Brass rhythm analysis software.
Period2::Luciferase (Per2::Luc) stable U2OS transfects were cultured, as described above. A Greiner Bio-One 384 Well Plate (Polystyrene, F-bottom), was then seeded at 6000 cells per 50 μl well. Following a 24 hour period, the cells were treated with 0.1% dexamethasone, a glucocorticoid hormone analogue known to reset intracellular circadian rhythms, for 1 hour. Subsequently, the dexamethasone-containing medium was removed, the cells were washed with PBS and luciferin and test drug containing medium was added. The cells were then assayed for luminescence over a period of 96 hours in the BMG FLUOstar OPTIMA Microplate Reader to observe the periodicity and amplitude of the luminescence values.

CREB = CREB phosphorylation in U2OS cells; type: cell-based
cJun = cJun mRNA after drug treatment; type: cell-based; conditions: 10 uM
Experimental: (§1) Total RNA was extracted using the microRNeasy column method (Qiagen, Hilden, Germany). Quality and quantity of RNA were measured using an Agilent Bioanalyzer and a Nanodrop1000 (Thermo Fisher Scientific, Waltham, MA USA), respectively.
(§2) RNA samples were prepared as described for microarray hybridisation. cDNA was synthesized with a qScript cDNA synthesis kit (Quanta Biosciences, Gaithersburg, MD), and quantitative PCR (qPCR) was conducted with Sybr green I and an SDS7700 thermal cycler (Applied Biosystems, Foster City, CA). Relative quantification of transcript levels was done as described previously (Peirson et al., Nucleic Acids Res. 2003 Jul. 15; 31(14):e73.). The geometric mean of a minimum of three housekeeping genes was used for normalization (Gapdh, ActB, GusB and Rps9 for example).

C57Bl/6 mice = assay: Phase shifting of circadian activity by drug (running wheel); type: in vivo
Experimental: Animals were housed under a reversed 12:12 LD cycle (400 lux from white LED lamps) with food and water ad libitum. For phase-shifting studies, C57Bl/6 mice were maintained on running wheels in light tight chambers on a 12:12 LD cycle (400 lux from white LED lamps) and injected with drug at the indicated time points. The drugs were formulated in a vehicle consisting of 5% Koliphor-HS15 (Sigma-Aldrich, UK) 5% Cyclodextran (Sigma-Aldrich, UK) in 0.9% saline. This vehicle was warmed to 37° C. and the indicated drugs kept at a 100× stock in DMSO and mixed at the appropriate concentration to be administered at approximately 300 ul intraperitoneal injection (n=6 to 10). Where the time point of injection was in the dark, the procedure was conducted under dim red light. Where measuring phase-shifting, the mice were then placed in DD and allowed to free run for 14 days in DD, running wheel activity data was collected and analysed on Clocklab (Actimetrics, Wilmette, IL). For jet-lag studies, mice were maintained on running wheels in light tight chambers on a 12:12 LD cycle (400 lux from white LED lamps) and injected with drugs as above at ZT6 and the LD cycle was shifted 6 hours in advance. The onset of activity on each day was used to measure phase relative to the LD cycle.
Phase Shifting: C57Bl/6 male mice (80 days or older) were maintained on running wheels in light tight chambers on a 12:12 LD cycle (100 lux from white LED lamps) on stable entrainment, were released in complete darkness. At set times as indicated in the experiments, the animals received an intraperitoneal injection (300 ul) of drug constituted in sterile saline with 5% Cyclodextrin (Sigma-Aldrich) and 5% Koliphor (Sigma-Aldrich) and then allowed to free run in DD, running wheel activity data were collected and analysed on Clocklab (Actimetrics, Wilmette, IL).

Per2 = Per2 mRNA within the SCN after intraperitoneal injection; type: in vivo, mice; conditions: 4 h after intraperitoneal injection
Description: SCN Tissue Collection: Animals were housed under a 12:12 LD cycle for 2 weeks with food and water ad libitum. Animals then received either a drug injection with a alteration in the light dark cycle as described in the experiment and at set points following drug administration were sacrificed by cervical dislocation. Sham-treated mice not given a light pulse were dissected at each time point. Brains were removed and placed into a brain matrix (Kent Scientific, Torrington CT, USA). Per2::Luc transgenic animals (as reported in Yoo et al, Proc Natl Acad Sci USA. 2004 Apr. 13; 101(15):5339-46) were obtained from Prof Joseph Takahashi, Northwestern University. […]
as §1
as §2, with “The geometric mean of a minimum of three housekeeping genes was used for normalization (Gapdh, ActB, GusB and Rps9 for example).” left out

Per1/2 = assay: Sleep deprivation, Per1/2 expression within the SCN; type: in vivo; conditions: sleep deprivation decreases Per1/2 expression

Nc1nc(-c2ccccc2)c2c(n1)-c1cc(OCCN3CCOCC3)ccc1C2=O [JNJ40255293, 2-amino-8-[2-(4-morpholinyl)ethoxy]-4-phenyl-5H-indeno[1,2-d]pyrimidin-5-one]
circadian period length (Per2::Luc U2OS cells): increased circadian period length in a dose dependent manner | CREB phosphorylation (CREB): no changes in CREB phosphorylation | cJun mRNA (cJun): Upregulation | phase shift of circadian activity (C57Bl/6 mice; 5 mg/kg intraperitoneal, 6 h after the onset of light (ZT6), then constant dark): induced a phase advance | phase shift of circadian activity (C57Bl/6 mice; 5 mg/kg, administered at CT16, constant dark): resulted in a phase delay | phase shifts compared with other agents (FIG. 9A) (C57Bl/6 mice; difference between onset pre and post injection): causes the largest phase shifts | Per2 mRNA levels within the SCN (Per2): increase | Per1/2 expression within the SCN (Per1/2): reversed
